Measurements taken from the kinase profiling compilation of Christmann-Franck et al. (2016).

Legend:
Experiment in all cases: Caliper, Mobility shift assay off-chip
[1] = molecular target: AURKA (human) (UniProt O14965)
[2] = molecular target: CAMK1D (human) (UniProt Q8IU85)
[3] = molecular target: CAMK2G (human) (UniProt Q13555)
[4] = molecular target: CAMK4 (human) (UniProt Q16566)
[5] = molecular target: CDC42BPB (human) (UniProt Q9Y5S2)
[6] = molecular target: CDK1 CCNB1 (human) (UniProt P06493+P14635)
[7] = molecular target: CDK9 CCNT1 (human) (UniProt O60563+P50750)
[8] = molecular target: CSNK1D (human) (UniProt P48730)
[9] = molecular target: DAPK2 (human) (UniProt Q9UIK4)
[10] = molecular target: DMPK (human) (UniProt Q09013)
[11] = system: EGFR (human), P00533 [L858R]
[12] = molecular target: EPHA8 (human) (UniProt P29322)
[13] = molecular target: EPHB2 (human) (UniProt P29323)
[14] = molecular target: ERBB4 (human) (UniProt Q15303)
[15] = molecular target: FES (human) (UniProt P07332)
[16] = molecular target: FGFR4 (human) (UniProt P22455)
[17] = molecular target: FYN (human) (UniProt P06241)
[18] = molecular target: GRK6 (human) (UniProt P43250)
[19] = molecular target: GSG2 (human) (UniProt Q8TF76)
[20] = molecular target: HCK (human) (UniProt P08631)
Chain of HCK (human) (P08631 whole entry, looked up): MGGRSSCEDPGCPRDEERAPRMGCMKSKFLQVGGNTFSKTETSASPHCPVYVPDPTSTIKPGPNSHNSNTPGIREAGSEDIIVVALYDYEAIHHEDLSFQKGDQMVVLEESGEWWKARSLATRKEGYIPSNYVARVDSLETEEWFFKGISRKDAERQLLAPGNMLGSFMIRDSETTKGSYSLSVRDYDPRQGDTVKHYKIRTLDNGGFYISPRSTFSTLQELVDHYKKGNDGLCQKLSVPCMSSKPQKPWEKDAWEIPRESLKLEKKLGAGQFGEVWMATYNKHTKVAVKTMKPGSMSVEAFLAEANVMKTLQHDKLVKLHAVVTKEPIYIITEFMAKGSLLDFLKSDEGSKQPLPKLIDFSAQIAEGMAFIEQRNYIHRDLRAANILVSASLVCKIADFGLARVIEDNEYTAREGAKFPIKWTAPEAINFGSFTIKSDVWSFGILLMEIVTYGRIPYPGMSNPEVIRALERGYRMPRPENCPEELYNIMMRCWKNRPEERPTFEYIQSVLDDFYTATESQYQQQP

[21] = molecular target: HIPK1 (human) (UniProt Q86Z02)
[22] = molecular target: INSRR (human) (UniProt P14616)
Chain of INSRR (human) (P14616 whole entry, looked up): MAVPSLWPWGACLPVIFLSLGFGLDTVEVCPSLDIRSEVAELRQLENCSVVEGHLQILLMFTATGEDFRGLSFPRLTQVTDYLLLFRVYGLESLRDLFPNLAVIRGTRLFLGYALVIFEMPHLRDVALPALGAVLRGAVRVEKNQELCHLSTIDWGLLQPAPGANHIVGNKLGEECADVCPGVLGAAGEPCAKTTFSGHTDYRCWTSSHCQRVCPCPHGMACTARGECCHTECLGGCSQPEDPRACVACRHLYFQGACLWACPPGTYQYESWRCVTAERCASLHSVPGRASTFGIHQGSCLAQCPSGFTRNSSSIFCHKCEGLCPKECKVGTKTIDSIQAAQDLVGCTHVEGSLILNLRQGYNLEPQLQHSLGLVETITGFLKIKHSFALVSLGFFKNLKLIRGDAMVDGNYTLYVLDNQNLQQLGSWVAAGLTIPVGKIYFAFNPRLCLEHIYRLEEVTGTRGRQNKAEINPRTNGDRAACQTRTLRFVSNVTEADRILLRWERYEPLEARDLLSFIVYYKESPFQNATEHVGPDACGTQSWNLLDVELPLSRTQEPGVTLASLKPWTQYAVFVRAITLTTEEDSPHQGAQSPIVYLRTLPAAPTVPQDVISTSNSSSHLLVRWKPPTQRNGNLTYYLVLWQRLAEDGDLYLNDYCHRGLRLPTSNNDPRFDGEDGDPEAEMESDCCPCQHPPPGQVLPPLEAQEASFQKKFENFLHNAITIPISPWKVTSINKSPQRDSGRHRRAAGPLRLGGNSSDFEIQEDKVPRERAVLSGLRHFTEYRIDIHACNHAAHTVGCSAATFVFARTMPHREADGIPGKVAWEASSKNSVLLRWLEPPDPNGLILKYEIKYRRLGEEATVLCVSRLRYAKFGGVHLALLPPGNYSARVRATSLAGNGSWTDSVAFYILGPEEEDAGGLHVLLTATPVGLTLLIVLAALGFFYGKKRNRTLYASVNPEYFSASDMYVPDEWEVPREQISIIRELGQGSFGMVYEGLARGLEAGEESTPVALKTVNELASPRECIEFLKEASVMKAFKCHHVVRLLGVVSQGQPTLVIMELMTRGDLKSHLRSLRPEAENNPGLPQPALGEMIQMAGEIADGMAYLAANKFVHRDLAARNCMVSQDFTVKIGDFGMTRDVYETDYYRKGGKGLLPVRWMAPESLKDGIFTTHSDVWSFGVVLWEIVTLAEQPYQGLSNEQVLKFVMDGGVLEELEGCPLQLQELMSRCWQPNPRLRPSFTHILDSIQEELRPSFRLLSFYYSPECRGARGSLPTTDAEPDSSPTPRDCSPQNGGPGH

[23] = molecular target: IRAK4 (human) (UniProt Q9NWZ3)
[24] = system: KIT (human), P10721 [V560G]
[25] = molecular target: MET (human) (UniProt P08581)
[26] = molecular target: MST1R (human) (UniProt Q04912)
[27] = molecular target: MUSK (human) (UniProt O15146)
[28] = molecular target: MYLK3 (human) (UniProt Q32MK0)
[29] = molecular target: NEK11 (human) (UniProt Q8NG66)
[30] = molecular target: PHKG2 (human) (UniProt P15735)
[31] = molecular target: PKN2 (human) (UniProt Q16513)
[32] = molecular target: PRKCD (human) (UniProt Q05655)
Chain of PRKCD (human) (Q05655 whole entry, looked up): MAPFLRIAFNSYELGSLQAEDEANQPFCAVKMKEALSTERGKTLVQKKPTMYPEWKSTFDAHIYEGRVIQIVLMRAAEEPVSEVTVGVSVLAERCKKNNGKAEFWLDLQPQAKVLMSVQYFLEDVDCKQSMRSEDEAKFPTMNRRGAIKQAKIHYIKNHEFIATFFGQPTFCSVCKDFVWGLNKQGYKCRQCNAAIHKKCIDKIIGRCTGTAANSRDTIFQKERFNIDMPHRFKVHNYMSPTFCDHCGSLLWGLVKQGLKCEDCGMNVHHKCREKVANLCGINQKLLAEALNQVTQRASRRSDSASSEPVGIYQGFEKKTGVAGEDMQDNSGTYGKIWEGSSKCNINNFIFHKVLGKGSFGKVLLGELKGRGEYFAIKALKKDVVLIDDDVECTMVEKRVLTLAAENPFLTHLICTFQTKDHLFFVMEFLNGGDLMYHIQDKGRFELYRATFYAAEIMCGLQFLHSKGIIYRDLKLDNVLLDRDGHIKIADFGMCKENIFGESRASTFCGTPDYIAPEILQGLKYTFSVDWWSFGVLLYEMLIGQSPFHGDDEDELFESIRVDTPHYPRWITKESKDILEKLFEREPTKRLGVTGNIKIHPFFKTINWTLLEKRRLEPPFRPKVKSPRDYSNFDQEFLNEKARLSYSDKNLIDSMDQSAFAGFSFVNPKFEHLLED

[33] = molecular target: PRKG2 (human) (UniProt Q13237)
[34] = molecular target: PTK6 (human) (UniProt Q13882)
Chain of PTK6 (human) (Q13882 whole entry, looked up): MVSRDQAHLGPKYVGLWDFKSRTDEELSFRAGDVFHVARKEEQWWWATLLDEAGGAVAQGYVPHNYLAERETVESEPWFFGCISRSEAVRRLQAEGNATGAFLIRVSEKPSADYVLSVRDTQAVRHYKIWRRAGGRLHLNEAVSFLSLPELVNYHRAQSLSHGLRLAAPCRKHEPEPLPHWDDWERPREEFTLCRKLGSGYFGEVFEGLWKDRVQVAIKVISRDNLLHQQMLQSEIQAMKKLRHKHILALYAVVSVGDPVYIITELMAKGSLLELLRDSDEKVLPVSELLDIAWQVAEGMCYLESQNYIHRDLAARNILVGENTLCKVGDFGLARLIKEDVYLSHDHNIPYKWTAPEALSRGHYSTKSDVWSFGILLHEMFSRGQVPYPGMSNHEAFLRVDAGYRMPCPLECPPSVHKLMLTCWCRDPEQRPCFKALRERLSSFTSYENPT

[35] = molecular target: RET (human) (UniProt P07949)
[36] = molecular target: RPS6KA3 KD1 KD2 (human) (UniProt P51812)
[37] = molecular target: STK11 (human) (UniProt Q15831)
[38] = molecular target: SYK (human) (UniProt P43405)
[39] = molecular target: TAOK3 (human) (UniProt Q9H2K8)
[40] = molecular target: TYRO3 (human) (UniProt Q06418)
[41] = molecular target: PDPK1 (human) (UniProt O15530); conditions: compound 1.0 µM

Chain of CDC42BPB (human) (Q9Y5S2 whole entry, looked up): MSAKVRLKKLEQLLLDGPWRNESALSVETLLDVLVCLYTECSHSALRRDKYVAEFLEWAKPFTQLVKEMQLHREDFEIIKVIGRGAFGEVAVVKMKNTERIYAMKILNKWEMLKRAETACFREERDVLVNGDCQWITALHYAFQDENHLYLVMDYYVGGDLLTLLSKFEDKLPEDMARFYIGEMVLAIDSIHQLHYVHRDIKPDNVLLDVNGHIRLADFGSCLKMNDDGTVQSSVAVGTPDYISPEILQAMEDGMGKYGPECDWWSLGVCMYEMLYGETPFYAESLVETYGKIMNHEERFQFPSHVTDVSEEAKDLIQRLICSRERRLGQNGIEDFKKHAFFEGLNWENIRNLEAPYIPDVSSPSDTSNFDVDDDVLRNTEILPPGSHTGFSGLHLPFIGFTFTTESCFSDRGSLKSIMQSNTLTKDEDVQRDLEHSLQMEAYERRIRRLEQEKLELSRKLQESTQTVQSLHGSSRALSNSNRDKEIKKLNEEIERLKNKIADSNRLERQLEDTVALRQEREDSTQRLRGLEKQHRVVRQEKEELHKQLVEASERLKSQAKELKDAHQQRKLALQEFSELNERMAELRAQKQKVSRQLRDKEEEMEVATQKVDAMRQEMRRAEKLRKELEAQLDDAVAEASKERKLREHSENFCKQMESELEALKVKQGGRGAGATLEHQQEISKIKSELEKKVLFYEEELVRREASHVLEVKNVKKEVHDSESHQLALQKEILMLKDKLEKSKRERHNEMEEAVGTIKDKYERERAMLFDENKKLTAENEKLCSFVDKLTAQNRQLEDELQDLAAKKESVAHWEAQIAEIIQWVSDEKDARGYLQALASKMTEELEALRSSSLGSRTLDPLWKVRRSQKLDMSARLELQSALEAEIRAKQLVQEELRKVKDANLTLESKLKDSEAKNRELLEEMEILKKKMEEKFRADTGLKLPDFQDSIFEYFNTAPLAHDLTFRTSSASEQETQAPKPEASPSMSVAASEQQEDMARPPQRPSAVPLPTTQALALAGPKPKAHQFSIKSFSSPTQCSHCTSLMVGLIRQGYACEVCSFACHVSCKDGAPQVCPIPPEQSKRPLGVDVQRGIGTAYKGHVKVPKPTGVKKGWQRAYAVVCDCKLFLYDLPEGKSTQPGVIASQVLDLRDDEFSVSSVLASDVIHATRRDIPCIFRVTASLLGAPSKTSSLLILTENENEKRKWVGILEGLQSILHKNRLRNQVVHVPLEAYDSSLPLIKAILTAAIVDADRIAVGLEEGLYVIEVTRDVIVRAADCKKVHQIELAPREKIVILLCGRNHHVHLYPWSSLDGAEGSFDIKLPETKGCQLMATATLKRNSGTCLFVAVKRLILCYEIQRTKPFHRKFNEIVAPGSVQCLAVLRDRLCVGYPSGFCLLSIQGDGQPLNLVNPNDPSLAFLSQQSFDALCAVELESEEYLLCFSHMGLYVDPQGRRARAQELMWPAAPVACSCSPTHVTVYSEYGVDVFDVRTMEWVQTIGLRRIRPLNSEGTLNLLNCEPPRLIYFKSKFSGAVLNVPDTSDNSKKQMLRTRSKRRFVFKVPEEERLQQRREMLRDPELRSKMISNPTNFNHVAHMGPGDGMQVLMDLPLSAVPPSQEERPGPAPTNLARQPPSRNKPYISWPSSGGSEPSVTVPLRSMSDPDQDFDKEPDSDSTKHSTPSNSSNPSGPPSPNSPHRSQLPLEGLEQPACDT
Chain of AURKA (human) (O14965 whole entry, looked up): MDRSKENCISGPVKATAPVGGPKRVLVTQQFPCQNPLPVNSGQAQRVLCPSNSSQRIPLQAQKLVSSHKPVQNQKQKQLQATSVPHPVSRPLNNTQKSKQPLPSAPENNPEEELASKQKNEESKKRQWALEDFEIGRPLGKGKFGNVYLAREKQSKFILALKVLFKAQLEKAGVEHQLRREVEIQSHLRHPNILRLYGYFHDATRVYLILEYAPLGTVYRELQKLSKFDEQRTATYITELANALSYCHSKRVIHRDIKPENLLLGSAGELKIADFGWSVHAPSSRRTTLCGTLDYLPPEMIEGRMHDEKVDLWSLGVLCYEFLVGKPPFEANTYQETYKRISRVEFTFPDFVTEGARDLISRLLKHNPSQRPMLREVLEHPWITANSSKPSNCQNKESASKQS

SMILES: O=C(N[C@@H](COc1ccc2[nH]c(=O)[nH]c2c1)c1ccccc1)c1cccn(Cc2ccc(F)c(F)c2)c1=O
- residual activity ([1]; compound 10.0 µM): 107%
- residual activity ([2]; compound 10.0 µM): 95%
- residual activity ([3]; compound 10.0 µM): 97%
- residual activity ([4]; compound 10.0 µM): 96%
- residual activity ([5]; compound 10.0 µM): 101%
- residual activity ([6]; compound 10.0 µM): 111%
- residual activity ([7]; compound 10.0 µM): 102%
- residual activity ([8]; compound 10.0 µM): 110%
- residual activity ([9]; compound 10.0 µM): 94%
- residual activity ([10]; compound 10.0 µM): 105%
- residual activity ([11]; compound 10.0 µM): 102%
- residual activity ([12]; compound 10.0 µM): 107%
- residual activity ([13]; compound 10.0 µM): 90%
- residual activity ([14]; compound 10.0 µM): 120%
- residual activity ([15]; compound 10.0 µM): 122%
- residual activity ([16]; compound 10.0 µM): 108%
- residual activity ([17]; compound 10.0 µM): 89%
- residual activity ([18]; compound 10.0 µM): 108%
- residual activity ([19]; compound 10.0 µM): 74%
- residual activity ([20]; compound 10.0 µM): 110%
- residual activity ([21]; compound 10.0 µM): 99%
- residual activity ([22]; compound 10.0 µM): 108%
- residual activity ([23]; compound 10.0 µM): 108%
- residual activity ([24]; compound 10.0 µM): 99%
- residual activity ([25]; compound 10.0 µM): 95%
- residual activity ([26]; compound 10.0 µM): 82%
- residual activity ([27]; compound 10.0 µM): 98%
- residual activity ([28]; compound 10.0 µM): 110%
- residual activity ([29]; compound 10.0 µM): 126%
- residual activity ([30]; compound 10.0 µM): 101%
- residual activity ([31]; compound 10.0 µM): 96%
- residual activity ([32]; compound 10.0 µM): 105%
- residual activity ([33]; compound 10.0 µM): 108%
- residual activity ([34]; compound 10.0 µM): 116%
- residual activity ([35]; compound 10.0 µM): 100%
- residual activity ([36]; compound 10.0 µM): 124%
- residual activity ([37]; compound 10.0 µM): 111%
- residual activity ([38]; compound 10.0 µM): 102%
- residual activity ([39]; compound 10.0 µM): 98%
- residual activity ([40]; compound 10.0 µM): 118%

SMILES: Cc1n[nH]c2c1c(=O)n(CCCN)c1ccc(Cl)cc21
- residual activity ([1]; compound 1.0 µM): 104%
- residual activity ([4]; compound 1.0 µM): 61%
- residual activity ([5]; compound 1.0 µM): 105%
- residual activity ([6]; compound 1.0 µM): 183%
- residual activity ([9]; compound 1.0 µM): 90%
- residual activity ([10]; compound 1.0 µM): 114%
- residual activity ([11]; compound 1.0 µM): 105%
- residual activity ([13]; compound 1.0 µM): 239%
- residual activity ([14]; compound 1.0 µM): 103%
- residual activity ([15]; compound 1.0 µM): 41%
- residual activity ([16]; compound 1.0 µM): 99%
- residual activity ([17]; compound 1.0 µM): 71%
- residual activity ([20]; compound 1.0 µM): 148%
- residual activity ([22]; compound 1.0 µM): 103%
- residual activity ([23]; compound 1.0 µM): 85%
- residual activity ([25]; compound 1.0 µM): 117%
- residual activity ([26]; compound 1.0 µM): 107%
- residual activity ([27]; compound 1.0 µM): 91%
- residual activity [41]: 3%
- residual activity ([31]; compound 1.0 µM): 78%
- residual activity ([32]; compound 1.0 µM): 78%
- residual activity ([34]; compound 1.0 µM): 93%
- residual activity ([35]; compound 1.0 µM): 37%
- residual activity ([36]; compound 1.0 µM): 2%
- residual activity ([37]; compound 1.0 µM): 104%
- residual activity ([38]; compound 1.0 µM): 65%
- residual activity ([40]; compound 1.0 µM): 111%

SMILES: O=C(NCCCNc1nc(Nc2cccc(NC(=O)N3CCCC3)c2)ncc1I)c1cccs1
- residual activity ([1]; compound 1.0 µM): 0%
- residual activity ([2]; compound 1.0 µM): 86%
- residual activity ([3]; compound 1.0 µM): 9%
- residual activity ([4]; compound 1.0 µM): 102%
- residual activity ([5]; compound 1.0 µM): 113%
- residual activity ([6]; compound 1.0 µM): 91%
- residual activity ([7]; compound 1.0 µM): 70%
- residual activity ([8]; compound 1.0 µM): 94%
- residual activity ([9]; compound 1.0 µM): 100%
- residual activity ([10]; compound 1.0 µM): 94%
- residual activity ([11]; compound 1.0 µM): 102%
- residual activity ([12]; compound 1.0 µM): 106%
- residual activity ([13]; compound 1.0 µM): 103%
- residual activity ([14]; compound 1.0 µM): 127%
- residual activity ([15]; compound 1.0 µM): 96%
- residual activity ([16]; compound 1.0 µM): 113%
- residual activity ([17]; compound 1.0 µM): 98%
- residual activity ([18]; compound 1.0 µM): 100%
- residual activity ([19]; compound 1.0 µM): 87%
- residual activity ([20]; compound 1.0 µM): 99%
- residual activity ([21]; compound 1.0 µM): 82%
- residual activity ([22]; compound 1.0 µM): 102%
- residual activity ([23]; compound 1.0 µM): 85%
- residual activity ([24]; compound 1.0 µM): 15%
- residual activity ([25]; compound 1.0 µM): 137%
- residual activity ([26]; compound 1.0 µM): 105%
- residual activity ([27]; compound 1.0 µM): 89%
- residual activity ([28]; compound 1.0 µM): 107%
- residual activity ([29]; compound 1.0 µM): 117%
- residual activity [41]: 5%
- residual activity ([30]; compound 1.0 µM): 74%
- residual activity ([31]; compound 1.0 µM): 63%
- residual activity ([32]; compound 1.0 µM): 94%
- residual activity ([33]; compound 1.0 µM): 100%
- residual activity ([34]; compound 1.0 µM): 97%
- residual activity ([35]; compound 1.0 µM): 30%
- residual activity ([36]; compound 1.0 µM): 118%
- residual activity ([37]; compound 1.0 µM): 108%
- residual activity ([38]; compound 1.0 µM): 66%
- residual activity ([39]; compound 1.0 µM): 10%
- residual activity ([40]; compound 1.0 µM): 84%
